Test results: US8452543B2, “High throughput screening for antimicrobial dosing regimens” (priority 2005, dated 2013)
In brackets after ≈: the same amount, converted by molar mass. Like-named read-outs stand apart in the source and are kept apart here.

Key:
[1] = tested on: amikacin resistant A. baumannii isolates; experiment: Resistance confirmation, repeat susceptibility testing, amikacin; assay type: cell-based, Acinetobacter baumannii; details: amikacin resistant isolates
Experimental: The media plates were incubated at 35° C. for up to 24 (total population) and 72 hours (sub-populations with reduced susceptibility), then bacterial density from each sample was enumerated visually. The theoretical lower limit of detection was 400 CFU/ml.

P. aeruginosa ATCC 27853 = experiment: MIC/MBC, modified macrobroth dilution; assay type: cell-based, Pseudomonas aeruginosa
Experimental: (§1) The final concentration of bacteria in each macrobroth dilution tube was approximately 5×10^5 cfu/ml of Ca-MHB. Serial twofold dilutions of meropenem were used. […] Samples (50 μl) from clear tubes and the cloudy tube with the highest drug concentration were plated on Mueller-Hinton agar (MHA) plates (Hardy Diagnostics, Santa Maria, Calif.). […] Drug carry-over effect was assessed by visual inspection of the distribution of colonies on media plates. The studies were conducted in duplicate and repeated at least once on a separate day.

[2] = tested on: P. aeruginosa ATCC 27853 and its isogenic OprD− mutant (1000:1); experiment: Murine pneumonia model; assay type: in vivo, mice
Experimental: Female Swiss-Webster mice (22-26 g) were used; all mice were cared for in accordance to the highest humane and ethical standards, as approved by the Institutional Animal Care and Use Committee (IACUC). The animals were housed in isolation boxes to decrease the risk of infection from extraneous pathogens. They received food and water ad libitum. The animals were rendered neutropenic by 2 intra-peritoneal injections of cyclophosphamide (Sigma, St. Louis, Mo.) 150 mg/kg on day −4 and 100 mg/kg on day −1 prior to infection; previous studies have shown that this regimen would produce neutropenia for 5 days (13, 16). Transient nephrotoxicity was induced by 1 intra-peritoneal injection of uranyl nitrate (5 mg/kg on day −2), which has been previously shown to produce a significant stable reduction in renal function for at least 7 days (21).
Each mouse was anesthetized with a single intra-peritoneal dose ([…]) of tribromoethanol (Sigma, St. Louis, Mo.), and was intubated under laryngoscopic guidance. For each mouse, the correct placement of endotracheal tube was verified by placing a cooled mirror surface close to the exit to observe water vapor condensation. A few colonies of the bacterial isolates were inoculated into Ca-MHB and incubated at 35° C. until they reached late log phase growth. The bacterial suspension was diluted to the desired concentration of approximately 10^8 CFU/ml based on absorbance at 630 nm; a mixture of wild-type and its isogenic OprD^− mutant in a 1000:1 ratio was used to mimic a heterogeneous bacterial population. The inocula (10 μl) were directly inoculated into the trachea of the anesthetized animals.
Two hours after infection, 3 mice were sacrificed by CO2 asphyxiation to ascertain the bacterial burden in lung tissues. The lung tissues were aseptically collected and homogenized in 10 ml of sterile saline. The homogenates were centrifuged at 6000×G for 15 minutes. The supernatant was discarded and the pellets were re-suspended in normal saline to 10× their original volumes in order to minimize drug carry-over effect. They were then diluted ten-fold serially and quantitatively cultured on Mueller-Hinton agar (MHA) plates (Hardy Diagnostics, Santa Maria, Calif.) and MHA plates supplemented with meropenem at 3× the MIC of the wild-type isolate. The media plates were incubated at 35° C. in a humidified incubator for up to 24 hours (for MHA plates) and 72 hours (for meropenem-supplemented MHA plates) before reading and the bacterial burden in lung tissues enumerated.
The remaining mice were observed every 8 hours for 4 days, with or without meropenem (400 mg/kg) given intra-peritoneally every 8 hours (10 mice in each group). Total bacterial burden and those with reduced susceptibility in animal lung tissues were determined in a similar manner upon death or at the end of the experiment. Susceptibility testing was repeated on representative isolates recovered from meropenem-supplemented plates to confirm the presence of resistance.

[3] = tested on: P. aeruginosa PA 27853 and resistant isolates MR1, MR2, MR3; experiment: microbe, parasite or virus in culture; assay type: cell-based, Pseudomonas aeruginosa; details: for MIC: Pseudomonas aeruginosa
Experimental: as §1, with “Minimum inhibitory concentration (MIC)/minimum bactericidal concentration (MBC) were determined in Ca-MHB using a modified macrobroth dilution method as described by the CLSI (10). The final” for “The final”

Pseudomonas aeruginosa = assay type: cell-based
Experimental: The computer simulations were compared to experimental data from an in-vitro hollow fiber infection model with similar antimicrobial agent exposures (20). Basically the drug was injected directly into the central reservoir to achieve the peak concentration desired. Fresh (drug-free) growth medium (Ca-MHB) was continuously infused from the diluent reservoir into the central reservoir to dilute the drug in order to simulate drug elimination in humans. An equal volume of meropenem-containing medium was removed from the central reservoir concurrently to maintain an isovolumetric system. […]
Various elimination half-lives (1-3 hours) of meropenem were simulated and were validated subsequently in the infection models. Serial samples were obtained at baseline and daily (pre-dose) in duplicate from each hollow fiber system, for quantitative culture to define the effect of various drug exposures on the total bacterial population and on selection of resistant bacterial sub-populations.
Prior to culturing the bacteria quantitatively, the bacterial samples were centrifuged at 15,000 G for 15 minutes and reconstituted with sterile normal saline in order to minimize drug carry-over effect. Total bacterial populations were quantified by spiral plating 10× serial dilutions of the samples (50 μl) onto drug-free Mueller-Hinton agar (MHA) plates (Hardy Diagnostics, Santa Maria, Calif.). […]

[4] = 10 mice received meropenem treatment

With `C[C@@H](O)[C@H]1C(=O)N2C(C(=O)O)=C(S[C@@H]3CN[C@H](C(=O)N(C)C)C3)[C@H](C)[C@H]12` [meropenem] the cross-resistance [1] was “not”, the MBC (P. aeruginosa ATCC 27853; Pseudomonas aeruginosa, ATCC27853, P. aeruginosa isolate, read-out: MBC) was 1 µg/mL (≈ 2.61 µM) and the MIC (P. aeruginosa ATCC 27853; Pseudomonas aeruginosa, ATCC27853, P. aeruginosa isolate, read-out: MIC) was 1 µg/mL (≈ 2.61 µM). The MIC (P. aeruginosa ATCC 27853; wild-type isolate used in vivo) was 1 µg/mL (≈ 2.61 µM), the “survival over 4 days” value ([2]; 400 mg/kg intra-peritoneally every 8 hours) was 100% and the “animals with complete replacement of bacterial population by the OprD− mutant in lung tissue” value ([2]; 400 mg/kg intra-peritoneally every 8 hours, 96 hours) was 30%. For the same compound, the “mice in which resistance emergence was found” value [2, 4] was 3 mice, the “mice that survived up to 96 hours” value [2, 4] was 10 mice and the “MIC of isolates recovered from meropenem-supplemented MHA plates compared to the OprD− mutant” value ([2]; repeat susceptibility testing) was “did not reveal a substantial increase in MIC”. It also gave an MIC ([3]; OprD− isolate used in vivo) of 4 µg/mL (≈ 10.4 µM), an MIC ([3]; strain MR1 (Placebo exposure, OprD−), macrobroth method) of 4 µg/mL (≈ 10.4 µM) and an MIC ([3]; strain MR2 (Cmin/MIC 0.5, OprD− & Mex+), macrobroth method) of 64 µg/mL (≈ 167 µM). The MIC ([3]; strain MR3 (Cmin/MIC 1.7, OprD− & Mex+), macrobroth method, read-out: MIC) was 32 µg/mL (≈ 83.4 µM), the MIC ([3]; strain PA 27853, macrobroth method) was 1 µg/mL (≈ 2.61 µM) and the stability of resistance ([3]; resistant isolates recovered from MEM-supplemented plates) was “phenotypically stable”. The microbial response (Pseudomonas aeruginosa) was “associated with regrowth” and the “Cmin/MIC necessary to suppress the emergence of resistance” value (Pseudomonas aeruginosa; Cmax 64 μg/ml, dosing every 8 hours for 5 days) was no less than 4.
